The source made the active and inactive calls.
Experiments:
Assay type in all cases: functional
[1] = biological target: Fibroblast growth factor receptor 1 (Homo sapiens, UniProt P11362)
[2] = biological target: Tyrosine-protein kinase Fyn (Homo sapiens, UniProt P06241)
[3] = biological target: Dual specificity mitogen-activated protein kinase kinase 2 (Homo sapiens, UniProt P36507); experiment: Navigating the Kinome. Panel member name: MAP2K2
[4] = biological target: Serine/threonine-protein kinase Chk2 (Homo sapiens, UniProt O96017);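 further: CHEK2 entry within a kinome-wide screening panel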
Serine/threonine-protein kinase Chk2, sequence (O96017 whole entry): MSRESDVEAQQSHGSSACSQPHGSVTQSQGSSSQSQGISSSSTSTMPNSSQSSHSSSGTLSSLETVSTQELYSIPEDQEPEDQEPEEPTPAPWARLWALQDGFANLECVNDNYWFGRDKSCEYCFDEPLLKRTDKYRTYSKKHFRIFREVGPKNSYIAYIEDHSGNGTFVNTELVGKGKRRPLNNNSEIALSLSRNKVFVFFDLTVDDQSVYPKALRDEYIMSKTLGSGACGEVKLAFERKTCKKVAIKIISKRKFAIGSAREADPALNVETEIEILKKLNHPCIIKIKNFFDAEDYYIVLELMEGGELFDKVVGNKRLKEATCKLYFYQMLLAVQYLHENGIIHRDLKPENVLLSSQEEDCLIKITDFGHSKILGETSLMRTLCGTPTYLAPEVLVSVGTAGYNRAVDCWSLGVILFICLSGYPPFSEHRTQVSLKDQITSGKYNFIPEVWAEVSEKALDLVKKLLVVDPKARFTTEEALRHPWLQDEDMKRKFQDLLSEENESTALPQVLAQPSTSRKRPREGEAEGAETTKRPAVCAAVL

[5] = biological target: Glycogen synthase kinase-3 beta (Homo sapiens, UniProt P49841);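 further: value comes from a broad kinome profiling panel, with GSK3B as the panel member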
Glycogen synthase kinase-3 beta, sequence (P49841 whole entry): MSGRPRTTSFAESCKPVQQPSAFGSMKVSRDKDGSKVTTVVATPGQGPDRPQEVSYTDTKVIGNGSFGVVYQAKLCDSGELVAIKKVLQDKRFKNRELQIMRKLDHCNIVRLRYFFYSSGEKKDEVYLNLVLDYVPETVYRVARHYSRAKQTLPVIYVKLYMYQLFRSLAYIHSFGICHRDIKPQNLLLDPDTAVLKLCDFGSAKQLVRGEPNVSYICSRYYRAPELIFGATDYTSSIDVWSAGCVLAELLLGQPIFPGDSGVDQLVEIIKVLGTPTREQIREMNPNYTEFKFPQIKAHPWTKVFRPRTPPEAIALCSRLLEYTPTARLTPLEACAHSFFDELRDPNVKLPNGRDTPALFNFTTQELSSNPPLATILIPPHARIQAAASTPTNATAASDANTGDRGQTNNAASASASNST

[6] = biological target: Vascular endothelial growth factor receptor 2 (Homo sapiens, UniProt P35968)
Vascular endothelial growth factor receptor 2, sequence (P35968 whole entry): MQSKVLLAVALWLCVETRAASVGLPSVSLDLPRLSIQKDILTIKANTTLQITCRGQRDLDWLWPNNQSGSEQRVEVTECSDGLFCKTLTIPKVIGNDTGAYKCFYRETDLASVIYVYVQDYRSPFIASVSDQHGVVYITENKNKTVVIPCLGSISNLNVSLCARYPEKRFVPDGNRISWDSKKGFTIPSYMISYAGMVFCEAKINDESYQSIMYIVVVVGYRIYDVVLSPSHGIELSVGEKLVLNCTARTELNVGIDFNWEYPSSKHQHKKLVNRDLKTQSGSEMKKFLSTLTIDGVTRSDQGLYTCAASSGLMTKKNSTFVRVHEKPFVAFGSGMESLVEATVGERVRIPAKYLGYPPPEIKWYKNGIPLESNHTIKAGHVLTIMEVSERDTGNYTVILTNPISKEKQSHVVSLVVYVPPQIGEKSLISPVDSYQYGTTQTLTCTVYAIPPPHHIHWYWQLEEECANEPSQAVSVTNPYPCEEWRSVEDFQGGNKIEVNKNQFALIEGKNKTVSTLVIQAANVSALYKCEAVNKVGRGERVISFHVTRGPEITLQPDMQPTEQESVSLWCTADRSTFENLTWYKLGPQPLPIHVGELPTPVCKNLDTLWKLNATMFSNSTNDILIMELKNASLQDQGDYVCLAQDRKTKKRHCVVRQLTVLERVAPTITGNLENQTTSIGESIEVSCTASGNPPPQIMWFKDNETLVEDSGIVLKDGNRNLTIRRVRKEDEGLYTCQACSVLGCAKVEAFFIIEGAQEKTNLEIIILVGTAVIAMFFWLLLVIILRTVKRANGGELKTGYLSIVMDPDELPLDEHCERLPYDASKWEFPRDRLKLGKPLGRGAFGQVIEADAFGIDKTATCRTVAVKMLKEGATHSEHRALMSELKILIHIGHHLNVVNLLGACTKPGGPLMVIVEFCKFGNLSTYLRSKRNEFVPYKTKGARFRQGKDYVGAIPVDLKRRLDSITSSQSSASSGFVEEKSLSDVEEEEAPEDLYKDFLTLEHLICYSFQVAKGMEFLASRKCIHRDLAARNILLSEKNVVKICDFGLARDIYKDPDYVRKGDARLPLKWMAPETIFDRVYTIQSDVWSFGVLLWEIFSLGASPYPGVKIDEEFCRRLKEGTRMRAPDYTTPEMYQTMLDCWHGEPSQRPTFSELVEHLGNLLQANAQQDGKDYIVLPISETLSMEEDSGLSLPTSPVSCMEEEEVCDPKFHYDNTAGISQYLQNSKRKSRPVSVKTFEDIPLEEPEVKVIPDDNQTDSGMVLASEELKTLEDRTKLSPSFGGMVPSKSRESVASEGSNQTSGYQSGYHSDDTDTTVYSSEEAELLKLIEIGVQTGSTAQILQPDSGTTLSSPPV

[7] = biological target: MAP kinase-activated protein kinase 5 (Homo sapiens, UniProt Q8IW41);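 further: measured as one member of a kinome panel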
[8] = biological target: Serine/threonine-protein kinase PLK1 (Homo sapiens, UniProt P53350);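 further: PLK1 measured as one member of a kinome-wide profiling panel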
[9] = biological target: BDNF/NT-3 growth factors receptor (Homo sapiens, UniProt Q16620);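 further: NTRK2 measured as one member of a broad kinome-wide kinase profiling panel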
[10] = biological target: Protein-tyrosine kinase 6 (Homo sapiens, UniProt Q13882)
[11] = biological target: Serine/threonine-protein kinase 3 (Homo sapiens, UniProt Q13188);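 further: measured as one member of a kinome-wide kinase panel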
[12] = biological target: Testis-specific serine/threonine-protein kinase 2 (Homo sapiens, UniProt Q96PF2);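 further: part of the Navigating the Kinome panel, target entry STK22B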
[13] = biological target: Serine/threonine-protein kinase PAK 4 (Homo sapiens, UniProt O96013);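 further: value obtained within a kinome profiling panel in which PAK4 was one of the panel members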
[14] = biological target: Maternal embryonic leucine zipper kinase (Homo sapiens, UniProt Q14680)
[15] = biological target: Protein kinase C delta type (Homo sapiens, UniProt Q05655)
Protein kinase C delta type, sequence (Q05655 whole entry): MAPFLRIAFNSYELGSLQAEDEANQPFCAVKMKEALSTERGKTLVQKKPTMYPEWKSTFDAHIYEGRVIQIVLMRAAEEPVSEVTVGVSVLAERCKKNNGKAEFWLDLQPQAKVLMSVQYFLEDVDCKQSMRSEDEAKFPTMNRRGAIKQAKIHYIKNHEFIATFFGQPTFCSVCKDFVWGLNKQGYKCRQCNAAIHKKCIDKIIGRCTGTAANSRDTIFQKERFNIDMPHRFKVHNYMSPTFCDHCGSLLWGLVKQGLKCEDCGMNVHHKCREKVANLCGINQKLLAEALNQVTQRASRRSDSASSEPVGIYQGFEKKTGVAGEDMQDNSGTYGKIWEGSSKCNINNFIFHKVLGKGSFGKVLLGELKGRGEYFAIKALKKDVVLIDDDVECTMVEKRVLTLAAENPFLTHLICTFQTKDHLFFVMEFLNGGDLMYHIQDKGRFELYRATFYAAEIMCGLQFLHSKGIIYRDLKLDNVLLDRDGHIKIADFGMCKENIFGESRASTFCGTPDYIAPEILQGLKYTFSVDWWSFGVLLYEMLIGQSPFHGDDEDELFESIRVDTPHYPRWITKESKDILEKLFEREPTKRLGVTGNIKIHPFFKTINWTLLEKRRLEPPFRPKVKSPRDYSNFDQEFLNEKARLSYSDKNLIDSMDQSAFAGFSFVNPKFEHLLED

[16] = biological target: T1, Tyrosine-protein kinase JAK3 (Homo sapiens, UniProt P52333)
T1 sequence (P52333 whole entry): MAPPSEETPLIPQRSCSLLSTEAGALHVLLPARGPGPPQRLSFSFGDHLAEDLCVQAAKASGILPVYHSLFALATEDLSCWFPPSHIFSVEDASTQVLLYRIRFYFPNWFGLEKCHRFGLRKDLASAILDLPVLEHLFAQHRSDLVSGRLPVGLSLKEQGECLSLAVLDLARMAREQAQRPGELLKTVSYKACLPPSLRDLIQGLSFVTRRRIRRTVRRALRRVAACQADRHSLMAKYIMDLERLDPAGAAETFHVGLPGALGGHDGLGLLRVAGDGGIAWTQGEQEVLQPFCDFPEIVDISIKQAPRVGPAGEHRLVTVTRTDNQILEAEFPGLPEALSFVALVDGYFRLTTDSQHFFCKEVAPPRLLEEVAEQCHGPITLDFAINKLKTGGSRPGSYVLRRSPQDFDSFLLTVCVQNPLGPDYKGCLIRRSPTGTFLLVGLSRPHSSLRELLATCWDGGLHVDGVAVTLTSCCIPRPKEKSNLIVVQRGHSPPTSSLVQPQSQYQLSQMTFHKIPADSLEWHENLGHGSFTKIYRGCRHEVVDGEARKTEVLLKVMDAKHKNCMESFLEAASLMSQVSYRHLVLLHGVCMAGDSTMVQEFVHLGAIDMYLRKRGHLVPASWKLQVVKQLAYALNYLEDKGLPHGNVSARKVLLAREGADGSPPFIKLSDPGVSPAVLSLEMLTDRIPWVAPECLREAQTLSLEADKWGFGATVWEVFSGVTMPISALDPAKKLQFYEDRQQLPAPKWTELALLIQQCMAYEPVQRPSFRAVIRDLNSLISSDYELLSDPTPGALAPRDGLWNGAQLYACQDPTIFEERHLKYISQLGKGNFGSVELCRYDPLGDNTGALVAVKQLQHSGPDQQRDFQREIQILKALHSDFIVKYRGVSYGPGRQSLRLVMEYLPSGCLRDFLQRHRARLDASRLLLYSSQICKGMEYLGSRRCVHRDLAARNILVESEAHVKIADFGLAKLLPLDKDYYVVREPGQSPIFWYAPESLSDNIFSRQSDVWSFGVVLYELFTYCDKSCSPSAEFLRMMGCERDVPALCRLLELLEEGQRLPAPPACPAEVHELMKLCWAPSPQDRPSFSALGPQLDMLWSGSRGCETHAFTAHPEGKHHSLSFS

[17] = biological target: Proto-oncogene tyrosine-protein kinase receptor Ret (Homo sapiens, UniProt P07949);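 further: measured within a kinome-wide profiling panel, RET as the panel member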
[18] = biological target: Fibroblast growth factor receptor 3 (Homo sapiens, UniProt P22607)
[19] = biological target: Serine/threonine-protein kinase PAK 1 (Homo sapiens, UniProt Q13153)
[20] = biological target: MAP kinase-interacting serine/threonine-protein kinase 2 (Homo sapiens, UniProt Q9HBH9)
[21] = biological target: Casein kinase I isoform gamma-1 (Homo sapiens, UniProt Q9HCP0);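 further: measured as the CSNK1G1 member of a kinome profiling panel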
Casein kinase I isoform gamma-1, sequence (Q9HCP0 whole entry, canonical isoform): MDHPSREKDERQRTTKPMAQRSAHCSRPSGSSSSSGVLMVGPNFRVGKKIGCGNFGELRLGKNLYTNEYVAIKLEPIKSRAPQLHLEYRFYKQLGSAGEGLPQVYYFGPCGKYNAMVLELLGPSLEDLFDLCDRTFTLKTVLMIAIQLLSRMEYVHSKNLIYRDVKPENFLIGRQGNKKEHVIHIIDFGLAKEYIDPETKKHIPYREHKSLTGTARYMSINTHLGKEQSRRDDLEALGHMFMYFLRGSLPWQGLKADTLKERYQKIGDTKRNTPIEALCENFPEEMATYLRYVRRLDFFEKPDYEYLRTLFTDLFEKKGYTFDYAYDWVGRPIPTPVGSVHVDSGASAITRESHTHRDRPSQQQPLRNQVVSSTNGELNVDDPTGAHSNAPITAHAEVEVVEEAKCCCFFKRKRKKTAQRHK

[22] = biological target: Mitogen-activated protein kinase 9 (Homo sapiens, UniProt P45984);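 further: value from a kinome panel profiling assay, MAPK9 panel entry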
Mitogen-activated protein kinase 9, sequence (P45984 whole entry): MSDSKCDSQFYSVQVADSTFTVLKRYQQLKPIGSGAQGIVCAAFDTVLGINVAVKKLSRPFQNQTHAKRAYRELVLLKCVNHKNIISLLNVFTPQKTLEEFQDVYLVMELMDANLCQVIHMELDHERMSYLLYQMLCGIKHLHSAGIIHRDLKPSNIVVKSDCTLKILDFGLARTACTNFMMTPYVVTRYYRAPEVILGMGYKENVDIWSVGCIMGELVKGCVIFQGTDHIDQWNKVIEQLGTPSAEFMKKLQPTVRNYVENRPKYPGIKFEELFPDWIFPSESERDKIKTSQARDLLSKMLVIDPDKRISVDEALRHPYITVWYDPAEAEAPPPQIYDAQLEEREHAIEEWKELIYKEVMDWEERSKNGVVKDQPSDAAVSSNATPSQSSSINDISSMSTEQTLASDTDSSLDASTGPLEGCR

[23] = biological target: High affinity nerve growth factor receptor (Homo sapiens, UniProt P04629);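 further: NTRK1 tested as one member of a kinome-wide profiling panel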
SRSF protein kinase 1 = SRSF protein kinase 1 (Homo sapiens, UniProt Q96SB4);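 further: measured as one member of a kinome-wide kinase profiling panel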
[24] = biological target: Tyrosine-protein kinase Fer (Homo sapiens, UniProt P16591);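 further: FER tested as one member of a kinome panel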
[25] = biological target: Dual specificity mitogen-activated protein kinase kinase 1 (Homo sapiens, UniProt Q02750); experiment: Navigating the Kinome. Panel member name: MAP2K1
Dual specificity mitogen-activated protein kinase kinase 1, sequence (Q02750 whole entry): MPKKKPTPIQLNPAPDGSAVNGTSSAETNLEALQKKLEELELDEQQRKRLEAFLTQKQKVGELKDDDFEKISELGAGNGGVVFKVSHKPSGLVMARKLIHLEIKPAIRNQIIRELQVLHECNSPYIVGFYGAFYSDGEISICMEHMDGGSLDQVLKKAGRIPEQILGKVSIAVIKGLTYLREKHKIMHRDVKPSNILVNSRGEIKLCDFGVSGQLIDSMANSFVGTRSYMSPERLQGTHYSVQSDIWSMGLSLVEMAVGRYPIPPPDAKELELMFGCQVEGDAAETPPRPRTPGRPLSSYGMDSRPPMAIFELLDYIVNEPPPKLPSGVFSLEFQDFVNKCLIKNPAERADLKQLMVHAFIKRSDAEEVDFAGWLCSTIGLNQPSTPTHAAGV

[26] = biological target: RAC-gamma serine/threonine-protein kinase (Homo sapiens, UniProt Q9Y243)
RAC-gamma serine/threonine-protein kinase, sequence (Q9Y243 whole entry): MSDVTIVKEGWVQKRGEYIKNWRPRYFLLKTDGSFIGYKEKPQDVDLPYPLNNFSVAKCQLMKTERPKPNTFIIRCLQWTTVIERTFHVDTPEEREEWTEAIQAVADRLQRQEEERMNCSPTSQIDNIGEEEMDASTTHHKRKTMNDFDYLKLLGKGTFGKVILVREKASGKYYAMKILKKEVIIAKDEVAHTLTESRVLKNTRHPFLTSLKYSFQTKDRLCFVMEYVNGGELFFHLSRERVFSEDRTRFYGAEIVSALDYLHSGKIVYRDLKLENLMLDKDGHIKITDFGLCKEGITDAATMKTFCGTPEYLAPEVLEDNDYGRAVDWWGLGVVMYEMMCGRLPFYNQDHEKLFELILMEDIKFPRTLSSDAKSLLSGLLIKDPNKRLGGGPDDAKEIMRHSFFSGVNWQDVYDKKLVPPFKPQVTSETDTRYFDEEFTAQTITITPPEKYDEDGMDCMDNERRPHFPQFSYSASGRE

[27] = biological target: Tyrosine-protein kinase Srms (Homo sapiens, UniProt Q9H3Y6);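 further: SRMS measured as one member of a kinome-wide kinase profiling panel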
[28] = biological target: Serine/threonine-protein kinase Nek2 (Homo sapiens, UniProt P51955)

SMILES	Ki [1]	Ki [2]	Ki [3]	Ki [4]	Ki [5]	Ki [6]	Ki [7]	Ki [8]	Ki [9]	Ki [10]	Ki [11]	Ki [12]	Ki [13]	Ki [14]	Ki [15]	Ki [16]	Ki [17]	Ki [18]	Ki [19]	Ki [20]	also measured
NC(=O)c1cc(-c2ccnc(N)n2)[nH]c1-c1ccc(Cl)cc1Cl	> 3980 nM (inactive)	> 794 nM (inactive)	> 3980 nM (inactive)	1260 nM (active)	6.31 nM (active)	794 nM (active)	> 1580 nM (inactive)	> 7940 nM (inactive)	> 3980 nM (inactive)	> 2510 nM (inactive)	> 3160 nM (inactive)	> 1580 nM (inactive)	> 5010 nM (inactive)	> 1580 nM (inactive)	158 nM (active)	1000 nM (active)	> 1260 nM (inactive)	> 2000 nM (inactive)	> 10000 nM (inactive)	79.4 nM (active)	pKi [4]: 5.9; pKi [5]: 8.2; pKi [6]: 6.1; pKi [15]: 6.8; pKi [16]: 6; pKi [20]: 7.1; Ki [21]: 25.1 nM (active); pKi [21]: 7.6; Ki [22]: 501 nM (active); pKi [22]: 6.3; Ki [23]: > 2510 nM (inactive); Ki (SRSF protein kinase 1): 1260 nM (active); pKi (SRSF protein kinase 1): 5.9; Ki [24]: > 1580 nM (inactive); Ki [25]: 2000 nM (active); pKi [25]: 5.7; Ki [26]: 6310 nM (active); pKi [26]: 5.2; Ki [27]: > 1580 nM (inactive); Ki [28]: > 10000 nM (inactive)
Cc1ccc(-n2nc(C(C)(C)C)cc2NC(=O)Nc2ccc(OCCN3CCOCC3)c3ccccc23)cc1 [DORAMAPIMOD]	–	–	> 3980 nM (inactive)	–	–	–	–	–	–	–	–	–	–	–	–	–	–	–	–	–	Ki [25]: > 3160 nM (inactive)
NC(COc1cncc(-c2ccc3c(c2)C(=Cc2ccco2)C(=O)N3)c1)Cc1c[nH]c2ccccc12 (centres undefined)	794 nM (active)	398 nM (active)	–	50.1 nM (active)	63.1 nM (active)	398 nM (active)	> 1580 nM (inactive)	2510 nM (active)	316 nM (active)	> 2510 nM (inactive)	12.6 nM (active)	794 nM (active)	1260 nM (active)	5.01 nM (active)	20 nM (active)	50.1 nM (active)	50.1 nM (active)	> 2000 nM (inactive)	398 nM (active)	316 nM (active)	Ki [21]: 1260 nM (active); Ki [22]: 398 nM (active); Ki [23]: 79.4 nM (active); Ki (SRSF protein kinase 1): 79.4 nM (active); Ki [24]: 398 nM (active); Ki [26]: 5.01 nM (active); Ki [27]: > 1580 nM (inactive); Ki [28]: 2000 nM (active)
